Target: human SGLT1 (Homo sapiens (Human), UniProt P13866)
Test: SGLT1 inhibitory activity: 14C-AMG uptake into CHO-K1 cell line stably expressing human SGLT1
Format: cell-based
Conditions: for IC50: 14C-AMG uptake; for inhibition at 0.1 µM: CHO-K1, at 0.1 uM
Procedure: SGLT1 inhibitory activity of a test compound (IC50 value) was calculated based on an amount of intake into a cell of labeled α-methyl-D-glucopyranoside (^14C-AMG) which is transported by SGLT1.
1) Construction of Human SGLT1 Expression Plasmid
A DNA fragment containing human SGLT1, wherein NheI recognition and cleavage sequence was added upstream of a Kozac consensus sequence of the vector; and a stop codon (TAG) and a SalI recognition and cleavage sequence was added just downstream of a coding region of the human SGLT1, was amplified by PCR using pCMV6-hSGLT1 (OriGene) as a template. The purified DNA fragment was cleaved by restriction enzymes NheI and SalI, and the obtained fragment was ligated into pcDNA3.1 (+) which was cleaved by NheI and XhoI to construct human SGLT1 expression plasmid.
2) Establishment of Stable Cell Lines Expressing Human SGLT1
A human SGLT1 expression plasmid pcDNA-hSGLT1 was transfected into CHO-K1 cells by Lipofectamine-2000 (Invitrogen). The cells were cultured in the presence of G418 (Nakalai tesque) and drug-resistant cells were selected. A cell line having the highest S/B ratio of an amount of ^14C-AMG uptake per cell treated by solvent to an amount of ^14C-AMG uptake per cell treated by phlorizin (SGLT inhibitor) was selected from the drug-resistant cells as a stable cell lines expressing human SGLT1.
3) Evaluation of SGLT1 Inhibitory Activity
The stable cell line expressing human SGLT1 was seeded at 5×10^4 cells/well on BioCoat™ Poly-D-Lysine 96 well plate with Lid (Becton Dickinson and Company) and cultured at 37° C. under 5% CO2 overnight. The medium was replaced with 100 μL/well of a Na (−) buffer (140 mM choline chloride, 2 mM KCl, 1 mM MgCl2, 1 mM CaCl2, 10 mM HEPES, 5 mM Tris, pH7.4) followed by incubation for 20 minutes at 37° C. under 5% CO2. After removing the Na (−) buffer, a test compound solution which was prepared from Na (+) buffer (140 mM NaCl, 2 mM KCl, 1 mM MgCl2, 1 mM CaCl2, 10 mM HEPES, 5 mM Tris, pH7.4) containing BSA was added thereto at 40 μL/well. In addition, Na (+) buffer containing 8 kBq of ^14C-AMG and 2 mM AMG was added thereto at 40 μL/well, and was mixed well. Na (−) buffer containing BSA was added to a blank well at 40 μL/well and additionally adding a Na (+) buffer containing 8 kBq of ^14C-AMG and 2 mM AMG, and was mixed well. Cells were incubated for 1 hour at 37° C. under 5% CO2. After the reaction, the cells were washed twice with 100 μL/well of iced wash buffer (100 mM AMG, 140 mM choline chloride, 2 mM KCl, 1 mM MgCl2, 1 mM CaCl2, 10 mM HEPES, 5 mM Tris, pH7.4), then lysed in 50 μL/well of a 0.2N aqueous solution of NaOH. The cell lysate was transferred to OptiPlate96 (Perkin-Elmer) and 100 μL/well of MicroScint-40 (Perkin-Elmer) was dispensed. The radioactivity was counted by TOPCOUNT NXT (Perkin-Elmer).
A data was obtained by deducting the average value (CPM) of blank wells from the average value (CPM) of each treated well. The inhibition ratio (%) was calculated by the following formula: inhibition rate (%)=[(A−B)/A]×100, where A is a data of the solvent control, and B is a data of a test compound.

[1] = CHO-K1 cells stably expressing human SGLT1
[2] = CHO-K1 cells expressing human SGLT1

Chain of human SGLT1 (P13866 whole entry): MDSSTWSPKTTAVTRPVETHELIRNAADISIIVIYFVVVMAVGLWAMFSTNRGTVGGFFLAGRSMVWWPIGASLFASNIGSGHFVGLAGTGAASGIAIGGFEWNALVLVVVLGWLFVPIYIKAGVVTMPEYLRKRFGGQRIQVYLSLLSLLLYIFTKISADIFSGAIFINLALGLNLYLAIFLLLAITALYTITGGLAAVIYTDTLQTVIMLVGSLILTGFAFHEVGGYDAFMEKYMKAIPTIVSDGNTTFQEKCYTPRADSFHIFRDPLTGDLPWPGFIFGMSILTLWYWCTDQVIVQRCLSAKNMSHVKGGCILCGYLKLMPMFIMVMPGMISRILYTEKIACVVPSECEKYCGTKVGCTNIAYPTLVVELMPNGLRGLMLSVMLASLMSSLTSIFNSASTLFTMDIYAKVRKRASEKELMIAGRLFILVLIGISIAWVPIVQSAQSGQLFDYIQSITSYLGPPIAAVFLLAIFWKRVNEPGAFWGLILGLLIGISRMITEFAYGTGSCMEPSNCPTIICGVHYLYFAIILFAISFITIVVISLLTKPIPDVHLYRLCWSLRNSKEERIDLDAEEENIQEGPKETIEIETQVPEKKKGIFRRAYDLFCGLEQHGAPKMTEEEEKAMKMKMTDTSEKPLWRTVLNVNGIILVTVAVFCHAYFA

Structure (SMILES) | IC50 [1] | IC50 [2] | also measured
Cc1ccccc1-n1nc(NC(=O)[C@H]2CNC(=O)[C@@H]2C)cc1-c1cccc(C(F)(F)F)c1 [Example 225] | – | 3.9 nM | –
O=C1C[C@@H](C(=O)Nc2cc(-c3cccc(OC(F)(F)F)c3)n(-c3ccccc3)n2)CN1 [Example 4, (R)-5-oxopyrrolidine-3-carboxylic acid[1-phenyl-5-(3-trifluoromethoxyphenyl)-1H-pyrazol-3-yl]amide] | – | 8.6 nM | –
C[C@@H](OCc1cc(F)cc(-c2cc(NC(=O)[C@@H]3CCC(=O)N3)nn2-c2ccccc2)c1)C(F)(F)F [Example 555] | 24 nM | – | –
O=C1NC[C@H](C(=O)Nc2cc(-c3cccc(COCC(F)(F)F)c3)n(-c3ccccc3)n2)O1 [Example 305] | 29 nM | – | –
CCC1C(=O)NCC1C(=O)Nc1cc(-c2cccc(OC(F)(F)F)c2)n(-c2ccccc2)n1 (single isomer, unassigned) [Example 308] | 16 nM | – | –
CCCc1cccc(-c2cc(NC(=O)[C@@H]3CNC(=O)CN3)nn2-c2ccccc2)c1 [Example 500] | – | – | inhibition at 0.1 µM: 19%
O=C1C[C@H](C(=O)Nc2cc(-c3cc(F)cc(COCC(F)(F)F)c3)n(-c3ccccc3Cl)n2)CN1 [Example 510] | 8.3 nM | – | –
CCOc1cccc(-c2cc(NC(=O)[C@@H]3CNC(=O)C3)nn2-c2ccccc2)c1 [Example 31] | – | 270 nM | –
C[C@@H](OCc1cc(F)cc(-c2cc(NC(=O)[C@H]3CNC(=O)O3)nn2-c2ccc(Cl)cc2)c1)C(F)(F)F [Example 571] | 9.3 nM | – | –
CCCCc1cccc(-c2cc(NC(=O)[C@@H]3CNC(=O)N3)nn2-c2ccccc2)c1 [Example 268] | 8.5 nM | – | –
CCCc1cc(CO)cc(-c2cc(NC(=O)[C@H]3CNC(=O)C3)nn2-c2ccccc2)c1 [Example 146] | – | – | inhibition at 0.1 µM: 38%
C[C@@H](OCc1cc(Cl)cc(-c2cc(NC(=O)[C@@H]3CNC(=O)C3)nn2-c2ccccc2F)c1)C(F)(F)F [Example 577] | 6.7 nM | – | –
C[C@H]1C(=O)NC[C@@H]1C(=O)Nc1cc(-c2cccc(OC(F)(F)F)c2)n(-c2ccccc2F)n1 [Example 166] | – | 2.9 nM | –
CCCc1cccc(-c2cc(NC(=O)C3CNC(=O)C(C)C3)nn2-c2ccccc2)c1 (racemic) [Example 292] | – | – | inhibition at 0.1 µM: 43%
CCCc1cccc(-c2cc(NC(=O)[C@H]3CNC(=O)O3)nn2-c2ccccc2)c1 [Example 258] | 23 nM | – | –
C[C@H]1C(=O)NC[C@@H]1C(=O)Nc1cc(-c2cccc(OC(F)(F)F)c2)n(-c2ccccc2)n1 [Example 1, (3R,4R)-4-methyl-5-oxopyrrolidine-3-carboxylic acid[1-phenyl-5-(3-trifluoromethoxyphenyl)-1H-pyrazol-3-yl]amide] | – | 4 nM | –

Structure (SMILES) | IC50 [1] | IC50 [2] | also measured
O=C1NC[C@H](C(=O)Nc2cc(-c3cccc(OC(F)(F)F)c3)n(-c3ccccc3)n2)N1 [Example 267] | 81 nM | – | –
COc1cccc(-n2nc(NC(=O)[C@H]3CNC(=O)C3)cc2-c2cccc(OC(F)(F)F)c2)c1 [Example 163] | – | 7.1 nM | –
C[C@H]1C(=O)NC[C@@H]1C(=O)Nc1cc(-c2cccc(OCC(F)(F)F)c2)n(-c2ccccc2)n1 [Example 210] | – | 5.9 nM | –
COC(C)(C)c1cccc(-c2cc(NC(=O)[C@H]3CNC(=O)N3)nn2-c2ccccc2)c1 [Example 269] | 92 nM | – | –
COc1ccc(F)c(-n2nc(NC(=O)[C@@H]3CNC(=O)C3)cc2-c2cccc(COCC(F)(F)F)c2)c1 [Example 522] | 5.3 nM | – | –
C[C@@H](OCc1cccc(-c2cc(NC(=O)[C@H]3CNC(=O)N3)nn2-c2ccccc2)c1)C(F)(F)F [Example 365] | 18 nM | – | –
CC(C)Oc1cccc(-n2nc(NC(=O)[C@@H]3CNC(=O)C3)cc2-c2cccc(CO[C@H](C)C(F)(F)F)c2)c1 [Example 454] | 2 nM | – | –
C[C@@H]1C[C@H](n2nc(NC(=O)[C@H]3CNC(=O)C3)cc2-c2cccc(OC(F)(F)F)c2)C[C@H](C)O1 [Example 219] | – | – | inhibition at 0.1 µM: 20%
CCCc1cccc(-c2cc(NC(=O)C3CNC(=O)C3CC)nn2-c2ccccc2)c1 (single isomer, unassigned) [Example 307] | 6 nM | – | –
O=C1C[C@H](C(=O)Nc2cc(-c3cc(Cl)cc(COCC(F)(F)F)c3)n(-c3ccccc3)n2)CN1 [Example 586] | 46 nM | – | –
O=C1C[C@@H](C(=O)Nc2cc(-c3cccc(O)c3)n(-c3ccccc3)n2)CN1 [Example 118] | – | 9300 nM | –
O=C1C[C@@H](C(=O)Nc2cc(-c3cccc(OC(F)(F)F)c3)n(C3CCC(F)(F)CC3)n2)CN1 [Example 197] | – | 180 nM | –
CC[C@H](C)OCc1cccc(-c2cc(NC(=O)[C@@H]3CNC(=O)C3)nn2-c2ccccc2)c1 [Example 351] | 32 nM | – | –
CCCc1cccc(-c2cc(NC(=O)C3CC(=O)NC3C)nn2-c2ccccc2)c1 (stereo not drawn) [Example 405] | – | – | inhibition at 0.1 µM: 29%
C[C@@H](OCc1cc(F)cc(-c2cc(NC(=O)[C@@H]3CNC(=O)C3)nn2-c2cccc(Cl)c2)c1)C(F)(F)F [Example 514] | 4 nM | – | –
C[C@H]1C(=O)NC[C@@H]1C(=O)Nc1cc(-c2cccc(C(F)(F)F)c2)n(-c2ccccc2Cl)n1 [Example 203] | – | 1.4 nM | –

The next lines start with results.

IC50 [1] | IC50 [2] | Structure (SMILES) | also measured
30 nM | – | CC(C)(C)/C=C/c1cccc(-c2cc(NC(=O)[C@@H]3CNC(=O)C3)nn2-c2ccccc2)c1 [Example 531] | –
– | 6.5 nM | CCC(F)(F)c1cccc(-c2cc(NC(=O)[C@H]3CNC(=O)C3)nn2CCC(C)(C)C)c1 [Example 143] | –
– | 250 nM | CCCCCCn1nc(NC(=O)C2CNC(=O)C2)cc1-c1ccccc1 (racemic) [Example 13] | –
– | 16 nM | CCCc1cccc(-c2cc(NC(=O)[C@@H]3CNC(=O)C3)nn2-c2ccc(Cl)cc2)c1 [Example 37] | –
37 nM | – | O=C1C[C@H](C(=O)Nc2cc(-c3cccc(OCCC(F)(F)F)c3)n(-c3ccccc3)n2)CN1 [Example 272] | –
5.3 nM | – | CCCc1cccc(-c2cc(NC(=O)[C@@H]3CNC(=O)C3)nn2-c2ccc(OC(C)C)cc2)c1 [Example 373] | –
1.8 nM | – | CCOc1cc(F)cc(-n2nc(NC(=O)[C@@H]3CNC(=O)C3)cc2-c2cccc(CO[C@H](C)C(F)(F)F)c2)c1 [Example 534] | –
5.7 nM | – | CCCc1cccc(-c2cc(NC(=O)[C@@H]3CNC(=O)C3)nn2-c2cccc(C(C)C)c2)c1 [Example 392] | –
110 nM | – | CCOCc1cccc(-c2cc(NC(=O)[C@@H]3CNC(=O)C3)nn2-c2ccccc2)c1 [Example 283] | –
– | 4.3 nM | CCC(F)(F)c1cccc(-c2cc(NC(=O)[C@H]3CNC(=O)C3)nn2-c2cccc(F)c2)c1 [Example 181] | –
15 nM | – | CCCc1cccc(-c2cc(NC(=O)[C@@H]3CNC(=O)C3)nn2-c2cccc(C(C)(C)C)c2)c1 [Example 394] | –
11 nM | – | CCOc1cccc(-n2nc(NC(=O)[C@@H]3CNC(=O)C3)cc2-c2cccc(OC(F)(F)F)c2)c1 [Example 443] | –
17 nM | – | O=C1CCC(C(=O)Nc2cc(-c3cccc(COCCC(F)(F)F)c3)n(-c3ccccc3)n2)CN1 (single isomer, unassigned) [Example 338] | –
– | 12 nM | CCCc1cccc(-c2cc(NC(=O)[C@H]3CNC(=O)C3)nn2C2CCCC2)c1 [Example 64] | –
5.25 nM | – | CCCc1cccc(-c2cc(NC(=O)[C@@H]3CNC(=O)C3)nn2-c2cccc(OCC)c2)c1 [Example 379] | –
– | 220 nM | CC(C)(O)c1cccc(-c2cc(NC(=O)[C@H]3CNC(=O)C3)nn2-c2ccccc2)c1 [Example 80] | –
